Measured values from paper PMC7762498, “Demethoxycurcumin analogue DMC-BH exhibits potent anticancer effects on orthotopic glioblastomas” (Aging (Albany NY), 2020).

Key:
[1] = test system: glioblastoma multiforme (GBM) patient derived tumors; assay: Patient-derived tumor xenograft (PDTX) model; format: in vivo, mice; conditions: B-NDG mice; DMC-BH 7.5, 15 or 30 mg/kg, TMZ 20 mg/kg
Description: In recent years, PDTX models have been used to mimic human tumors. These models are more clinically relevant than cell line-based xenograft models. Thus, we performed an in vivo study in a PDTX tumor model by implanting human glioma samples from a patient donor into B-NDG mice (Figure 7A).
Figure 7 In vivo anti-tumor activity of DMC-BH in the PDTX tumor model. (A) A scheme illustrating the process of creating the patient-derived tumor model. (B) Tumor growth curves of mice after treatment with 7.5 mg/kg, 15 mg/kg or 30 mg/kg DMC-BH or 20 mg/kg TMZ. (C) Average tumor weight at day 21 after different treatments. (D) Quantification of the Ki67-positive area in different treatment groups. (E) Representative H&E-stained tumor slices and Ki67 immunofluorescence labeled tumor tissue sections from different treatments groups. The data are shown as mean ± SD (n = 6).
Surgically resected human glioma tissue was obtained from a cancer patient (#0407002) following an approved Nanjing Medicinal University Institutional Review Board protocol. Within 2 hours of surgical resection, tumor tissues were cut into 1-2 mm fragments and implanted into SCID mice (B-NDG, 6 weeks old, female) using a surgical procedure approved by Nanjing Medicinal University Institutional Animal Care and Use committee. After surgery, tumor growth in the mice was monitored by palpating the abdomen twice per week. Tumors grew to 5-10 mm in diameter in about 8-10 weeks. The SCID mice bearing PDTX tumors were sacrificed, and tumor fragments of 1 to 2 mm in size were implanted into 6-week-old female SCID mice. Over 60% of the mice experienced tumor growth in approximately 6 weeks.

[2] = test system: U87 cell line; assay: Subcutaneous human glioma xenograft in SCID mice; format: in vivo
Description: To examine the anti-glioma effects of DMC-BH in vivo, a human glioma-SCID (severe combined immunodeficient) mouse model was established using the U87 cell line. […] The tumor volumes for the control, TMZ, DMC, and DMC-BH mice at day 21 were 1514 mm^3, 587 mm^3, 876 mm^3 and 570 mm^3, respectively. […] As shown in the Kaplan-Meier curves, the median survival was 15, 27, 19 and 35 days for the control, TMZ, DMC and DMC-BH groups, respectively (Figure 3B).
Figure 3 DMC-BH inhibited U87 glioma cell growth in vivo. Subcutaneous tumors generated from U87 cells were allowed to reach a volume of 150-200 mm^3 and were treated with 20 mg/kg TMZ, DMC or DMC-BH for 21 days. (A) Tumor volume was recorded according to treatment group at the indicated day. (B) The survival of brain tumor-bearing mice was recorded and represented in a Kaplan-Meier plot.
1-[4-Hydroxy-3-(pyrrolidin-1-ylmethyl) phenyl]-7-(4-hydroxy-3-methoxyphenyl) hepta-1,6-diene-3,5-dione, named DMC-BH, was constructed by our lab. DMC was obtained from Sigma-Aldrich (St. Louis, MO). To test the anti-glioma effect of DMC-BH in vivo, a xenograft model of human glioma was established. Four-week-old male SCID mice were purchased from Vital River Laboratory Animal Technology Co., Ltd. (Beijing, China). After a 1-week acclimatization, SCID mice were injected subcutaneously in the right flank with 6 × 10^5 […] glioma cells resuspended in 50 μL DMEM media. Treatment was initiated when the subcutaneous tumors reached an average size of 150 mm^3 to 200 mm^3. Mice received intraperitoneal injection of DMC (20 mg/kg/day), DMC-BH (20 mg/kg/day), TMZ (20 mg/kg/day) or vehicle as a control. Tumor diameter was measured every 2 days with calipers, and the tumor volume was calculated (length × width × height × 0.5). All experiments were carried out in keeping with the procedures and protocols of the Animal Ethics Committee of the First People's Hospital of Kunshan.

## Cn1nnc2c(C(N)=O)ncn2c1=O [TMZ, temozolomide]
[1]
  tumor growth in PDTX model: significant tumor regression
[2]; U87 subcutaneous xenograft, 20 mg/kg/day intraperitoneal, 21 days, control 1514 mm^3
  tumor volume at day 21: 587 mm^3
[2]; U87 xenograft, 20 mg/kg, control 15 days
  median survival: 27 days
